Paper PMC7552967, “Anti-Melanoma Activities of Artemisone and Prenylated Amino-Artemisinins in Combination With Known Anticancer Drugs” (Frontiers in Pharmacology, 2020)

Legend:
[1] = test system: HEK293 cells; assay: MTT cytotoxicity assay, HEK293; format: cell-based; conditions: Homo sapiens, 24 h exposure, mean ± SD, three biological replicates
Text: The human cell lines TK10 (human kidney adenocarcinoma), UACC62 (human melanoma) and MCF7 (human breast adenocarcinoma) were obtained from the National Cancer Institute (NCI) as part of a panel widely studied for drug screening and molecular target identification. Melanoma (A375) and human embryonic kidney (HEK293) were acquired from the American Type Culture Collection; ATCC® CRL-1619™ and ATCC® CRL-1573™ respectively. The nontumorigenic human immortalized keratinocyte (HaCaT) cells were a kind donation by the School of Anatomical Sciences, Faculty of Health Sciences, University of the Witwatersrand, South Africa. HaCaT cells were chosen as the nonmalignant control due to their ease of propagation, near normal phenotype and general use as an A375 control ([Dwivedi et al., 2015]; [Lewies et al., 2018]). The A375 cell line is a […] cells line with the BRAF mutation frequently used for in vitro drug screening assays for anti-melanoma drugs ([Couto et al., 2019]). All reagents were of analytical grade and were obtained from Merck (Darmstadt, Germany) unless stated otherwise. Cells were cultured in Dulbecco’s modified essential medium (DMEM; Hyclone, GE healthcare, South Logan, UT, USA) containing 10% fetal bovine serum (FBS), 1% penicillin/streptomycin, 1% 200 mM L-Glutamine and 1% nonessential amino acids (Lonza, Basel, Switzerland) at 37°C in a humidified atmosphere of 5% CO2. […]
The growth inhibitory effects of the compounds were tested in the 3-cell line panel consisting of TK10 (renal), UACC62 (melanoma) and MCF7 (breast) cancer cells by Sulforhodamine B (SRB) assay. In addition, activity was also evaluated against HEK293 cells with the 3-(4,5-dimethylthiazol-2-yl)-2,5-diphenyl tetrazolium bromide (MTT) assay ([Mosmann, 1983]). […] The results were expressed as half maximal inhibitory concentrations (IC50) as described before ([Lewies et al., 2018]). […] After incubation, cell viability was determined using a microplate reader (BioTek®, Vermont, USA) at an excitation wavelength of 560 nm and emission wavelength of 630 nm with DMSO measured as a blank. Cell viability was expressed as a percentage relative to the untreated control, which is assumed to be 100% viable. […] Using the MTT assay data, IC50 values were calculated using GraphPad Prism 8. […] The curve was fitted using the log(inhibitor) vs. response function and the IC50 values calculated ([Lewies et al., 2018]). A crude therapeutic index (fold decrease in IC50 value) was calculated as the IC50 of the noncancerous cell-line/IC50 of the cancerous cell line. […] Drug interactions were evaluated for synergism, additivity or antagonism using multiple drug effect analysis, based on the median-principle. Cells were treated with the drug combinations for 24 h and analyzed. […]

[2] = test system: A375 melanoma cells; assay: MTT cell viability assay, A375; format: cell-based, human; conditions: for IC50: Homo sapiens, A-375, MTT, 24 h, combinations 1:1, mean ± SD; for Therapeutic index (TI): IC50 of HaCat cells/IC50 of A375 cells
Text: The human cell lines TK10 (human kidney adenocarcinoma), UACC62 (human melanoma) and MCF7 (human breast adenocarcinoma) were obtained from the National Cancer Institute (NCI) as part of a panel widely studied for drug screening and molecular target identification. […] The nontumorigenic human immortalized keratinocyte (HaCaT) cells were a kind donation by the School of Anatomical Sciences, Faculty of Health Sciences, University of the Witwatersrand, South Africa. […] All reagents were of analytical grade and were obtained from Merck (Darmstadt, Germany) unless stated otherwise. Cells were cultured in Dulbecco’s modified essential medium (DMEM; Hyclone, GE healthcare, South Logan, UT, USA) containing 10% fetal bovine serum (FBS), 1% penicillin/streptomycin, 1% 200 mM L-Glutamine and 1% nonessential amino acids (Lonza, Basel, Switzerland) at 37°C in a humidified atmosphere of 5% CO2. Stock solutions of the compounds were prepared in dimethyl sulfoxide (DMSO). All subsequent dilutions were prepared in serum-free DMEM and vehicle controls were included in all experiments
The growth inhibitory effects of the compounds were tested in the 3-cell line panel consisting of TK10 (renal), UACC62 (melanoma) and MCF7 (breast) cancer cells by Sulforhodamine B (SRB) assay. […] Compounds prepared in DMSO were tested at 0.01–100 µM serial dilutions to establish initial inhibitory concentrations. […] After 24 h exposure to compounds, growth medium was removed, cells rinsed twice with 1 ml of phosphate buffered saline (PBS) and 100 µl fresh serum-free medium containing 5 mg/ml MTT solution was added MTT solution was prepared fresh for each analysis). Cells were then incubated for 4 h at 37°C, after which the MTT was removed and substituted with 100 µl dimethyl sulfoxide (DMSO) to dissolve the formazan crystals for an h at 37°C. After incubation, cell viability was determined using a microplate reader (BioTek®, Vermont, USA) at an excitation wavelength of 560 nm and emission wavelength of 630 nm with DMSO measured as a blank. Cell viability was expressed as a percentage relative to the untreated control, which is assumed to be 100% viable. For a positive control, cells were treated with 0.01% Triton-X 100 (Sigma-Aldrich, St Louis, MO, USA) for a period of 4 h. Using the MTT assay data, IC50 values were calculated using GraphPad Prism 8. Data were normalized to the positive (alleged to be 0% viable) and negative controls (presumed to be 100% viable), followed by the log-transformation of the concentration values. […] A crude therapeutic index (fold decrease in IC50 value) was calculated as the IC50 of the noncancerous cell-line/IC50 of the cancerous cell line. […] Drug interactions were evaluated for synergism, additivity or antagonism using multiple drug effect analysis, based on the median-principle. Cells were treated with the drug combinations for 24 h and analyzed. The CompuSyn (ComboSyn, Inc. NJ, USA) software package was used to generate the median-effect plots and combination index plots. […] All experiments were performed at least in triplicate and repeated independently.
Next, the quantitative colorimetric MTT assay was used to determine in vitro cell viability with A375 (melanoma) and HaCat (nonmalignant keratinocyte) cells. […] The IC50 was used to determine a crude therapeutic index (fold increase or decline in IC50).

Compound: C[C@H]1[C@H](N2CCS(=O)(=O)CC2)O[C@@H]2O[C@@]3(C)CC[C@H]4[C@H](C)CC[C@@H]1[C@@]24OO3 [Artemisone 4, artemisone]
- IC50 [1]: 86.7 ± 1.09 µM
- IC50 [2]: 95.7 ± 2.31 µM
- Therapeutic index (TI) [2]: 2.8

Compound: CC(C)=CCC/C(C)=C/CN1CCN([C@@H]2O[C@@H]3O[C@@]4(C)CC[C@H]5[C@H](C)CC[C@@H]([C@H]2C)[C@@]35OO4)CC1 [Geranylpiperazine-DHA 6, geranylpiperazine-DHA]
- IC50 [1]: 24.3 ± 1.15 µM
- IC50 [2]: 46.9 ± 0.89 µM
- Therapeutic index (TI) [2]: 2.2

Compound: C[C@@H]1CC[C@H]2[C@@H](C)C(=O)O[C@@H]3O[C@@]4(C)CC[C@@H]1[C@]32OO4 [Artemisinin 2, artemisinin]
- IC50 [1]: 120.7 ± 1.07 µM
- IC50 [2]: 150 ± 3.61 µM
- Therapeutic index (TI) [2]: 2.5

Compound: CC(C)=CCC/C(C)=C/CC/C(C)=C/CN1CCN([C@@H]2O[C@@H]3O[C@@]4(C)CC[C@H]5[C@H](C)CC[C@@H]([C@H]2C)[C@@]35OO4)CC1 [Farnesylpiperazine-DHA 7, farnesylpiperazine-DHA]
- IC50 [1]: 35.5 ± 1.09 µM
- IC50 [2]: 32.6 ± 1.08 µM
- Therapeutic index (TI) [2]: 2.1
